Molecular target: T1, carboxyl terminal truncated form of human stromelysin-I (Homo sapiens, UniProt P08254)
T1 construct: a carboxyl terminal truncated form of human stromelysin-I
Experiment: in vitro inhibition of truncated human stromelysin-I, fluorogenic Mca-peptide assay
Type: biochemical
Details: mercaptoalcohol compared with corresponding mercaptoketone
Experimental: For example, assays of in vitro inhibition activity against a carboxyl terminal truncated form of human stromelysin-I were conducted as follows. The buffer was prepared from 50 mM of N-[2-hydroxyethyl]piperazine-N'-[2-ethanesulfonic acid] (HEPES) (pH 7.0) containing 5 mM calcium, 0.02% of 23 lauryl ether (Brij) and 0.5 mM cysteine and was degassed by vacuum for more than 30 minutes. The methanol (MeOH), which is used for dilution of the inhibitor to the desired concentration, was degassed by bubbling argon for more than 30 minutes. For dilution, a sufficient amount of MeOH was then added to the compounds of the present invention to obtain a 10 mmol solution. For the assay, 20 μL of the MeOH/inhibitor solution was added to 460 μL of buffer, to which 20 μL of 100 nM of stromelysin was then added. The resulting solution was left for three minutes, after which time 5 μL of 100 μM of (7-methoxycoumarin-4-yl)acetyl-Pro-Leu-Gly-Leu-[3-(2',4'-dinitrophenyl)-L- 2,3-diaminopropionyl]-Ala-Arg-NH2 (Mca-peptide)(in dimethyl sulfoxide (DMSO)) was added. The fluorescence intensity increase was measured using a fluoremeter, with excitation wavelength centered around 328 nm (slit of 5 nm) and emission wavelength centered around 393 nm (slit of […]). The slope at each inhibitor concentration was then measured. The slope versus inhibition concentration was next fit into the IC50 equation of […]

T1 sequence (P08254 100-272 limits assumed): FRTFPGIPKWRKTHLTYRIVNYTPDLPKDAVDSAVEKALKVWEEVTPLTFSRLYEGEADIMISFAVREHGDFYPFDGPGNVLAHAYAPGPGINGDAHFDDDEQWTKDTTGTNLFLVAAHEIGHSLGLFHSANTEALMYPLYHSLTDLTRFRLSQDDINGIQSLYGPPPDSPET

CC(C)C[C@H](CC1CSC(c2ccccc2)(c2ccccc2)O1)C(=O)N1C(=O)OC[C@@H]1Cc1ccccc1 (stereo partly shown) [FIG. 11 (3)]
potency against stromelysin relative to the corresponding compound (FIG. 11): more than twice as potent

— patent publication US5840698A, “Inhibitors of collagenase-1 and stormelysin-I metalloproteases, pharmaceutical compositions comprising same and methods of their use” (Affymax Technologies N.V., priority 1995, dated 1998)
